US9765039B2, “Biaryl derivatives as bromodomain inhibitors” (Zenith Epigenetics Ltd., priority 2012, dated 2017)
Counter-ions that a name gives are not always drawn.

Legend:
hIL-6 mRNA = assay: Inhibition of hIL-6 mRNA transcription in LPS-stimulated U937 macrophages; format: cell-based, human; set-up: key: Active: Compounds with an IC50 value less than 30 μM are deemed to be active; conditions: U937 differentiated into macrophages, 1 h pretreatment, lipopolysaccharide 3 h
Experimental: In this example, hIL-6 mRNA in tissue culture cells was quantitated to measure the transcriptional inhibition of hIL-6 when treated with a compound of the present disclosure.
A human leukemic monocyte lymphoma cell line (U937) was plated (3.2×10^4 cells per well) in a 96-well plate in 100 μL RPMI-1640 containing 10% FBS and penicillin/streptomycin, and differentiated into macrophages for 3 days in 60 ng/mL PMA ([…]) at 37° C. in 5% CO2 prior to the addition of the compound of interest. The cells were pretreated for 1 h with the test compound prior to stimulation with […] lipopolysaccharide from Escherichia coli. The cells were incubated at 37° C. for 3 h before the cells were harvested. At time of harvest, the spent media was removed from the cells and the cells were rinsed in 200 μL PBS. Cell lysis solution (70 μL) was added the cells in each well and incubated for 5-10 min at room temperature, to allow for complete cell lysis and detachment. mRNA was then prepared using the “mRNA Catcher PLUS plate” (Invitrogen), according to the protocol supplied. After the last wash, as much wash buffer as possible was aspirated without allowing the wells to dry. Elution buffer (E3, 70 μL) was then added to each well. mRNA was then eluted by incubating the mRNA Catcher PLUS plate with Elution Buffer for 5 min at 68° C. and then immediately placing the plate on ice.
The eluted mRNA isolated was then used in a one-step quantitative real-time PCR reaction, using components of the Ultra Sense Kit together with Applied Biosystems primer-probe mixes. Real-time PCR data was analyzed, normalizing the Ct values for hIL-6 to an internal control, prior to determining the fold induction of each unknown sample, relative to the control.

Brd4 bromodomain 1 = target: T1, Brd4 bromodomain 1 (Homo sapiens, UniProt O60885); assay: Inhibition of tetra-acetylated histone H4 binding to BET bromodomains (TR-FRET); set-up: key: Active: Compounds with an IC50 value less than 30 μM were deemed to be active.; Not Active: Compounds with an IC50 value less than 30 μM were deemed to be active; conditions: first bromodomain of Brd4, tetra-acetylated histone H4 peptide
T1 construct: made in house; host or cells: E. coli BL21(DE3)
Experimental: Proteins were cloned and overexpressed with a N-terminal 6×His tag, then purified by nickel affinity followed by size exclusion chromatography. Briefly, E. coli BL21(DE3) cells were transformed with a recombinant expression vector encoding N-terminally Nickel affinity tagged bromodomains from Brd2, Brd3, Brd4. Cell cultures were incubated at 37° C. with shaking to the appropriate density and induced overnight with IPTG. The supernatant of lysed cells was loaded onto Ni-IDA column for purification. Eluted protein was pooled, concentrated and further purified by size exclusion chromatography. Fractions representing monomeric protein were pooled, concentrated, aliquoted, and frozen at −80° C. for use in subsequent experiments.
Binding of tetra-acetylated histone H4 and BET bromodomains was confirmed by a Time Resolved Fluorescence Resonance Energy Transfer (TR-FRET) method. N-terminally His-tagged bromodomains (200 nM) and biotinylated tetra-acetylated histone H4 peptide (25-50 nM, Millipore) were incubated in the presence of Europium Cryptate-labeled streptavidin (Cisbio Cat. #610SAKLB) and XL665-labeled monoclonal anti-His antibody (Cisbio Cat. #61HISXLB) in a white 96 well microtiter plate (Greiner). For inhibition assays, serially diluted test compound was added to these reactions in a 0.2% final concentration of DMSO. Final buffer concentrations were 30 mM HEPES pH 7.4, 30 mM NaCl, 0.3 mM CHAPS, 20 mM phosphate pH 7.0, 320 mM KF, 0.08% BSA). After 2 hours incubation at room temperature, the fluorescence by FRET was measured at 665 and 620 nm by a SynergyH4 plate reader (Biotek). Illustrative results with the first bromodomain of Brd4 are shown below (Table 1). The binding inhibitory activity was shown by a decrease in 665 nm fluorescence relative to 620 nm. IC50 values were determined from a dose response curve.

c-myc = assay: Inhibition of c-myc expression in cancer cell lines (mRNA, real-time PCR); format: cell-based; set-up: key: Active: Compounds with an IC50 value less than 30 μM were deemed to be active; conditions: Human AML MV4-11 cells, 3 hours
Experimental: MV4-11 cells (2.5×10^4 cells) were plated in 96 well U-bottom plates with test compound or DMSO (0.1%), and incubated for 3 hours at 37° C. Cells were then harvested by centrifugation, lysed, and mRNA was isolated using the mRNA catcher plus kit (Invitrogen). Reverse transcription of the mRNA and duplex amplification of the c-myc and cyclophilin cDNAs was performed using the RNA Ultrasense kit (Invitrogen) and a ViiA7 real-time PCR machine (Applied Biosystems). IC50 values were determined from a dose response curve.

Human AML MV-4-11 cells = assay: Inhibition of cell proliferation in cancer cell lines (CellTiter Aqueous One); format: cell-based; set-up: key: Active: Compounds with an IC50 value less than 30 μM were deemed to be active.; Not Active: Compounds with an IC50 value less than 30 μM were deemed to be active; conditions: 72 hours
Experimental: MV4-11 cells: 96-well plates were seeded with 5×10^4 cells per well of exponentially growing human AML MV-4-11 (CRL-9591) cells and immediately treated with two-fold dilutions of test compounds, ranging from 30 μM to 0.2 μM. Triplicate wells were used for each concentration, as well as a media only and three DMSO control wells. The cells and compounds were incubated at 37° C., 5% CO2 for 72 hours before adding 20 μL of the CellTiter Aqueous One Solution (Promega) to each well and incubating at 37° C., 5% CO2 for an additional 3-4 hours. The absorbance was taken at 490 nm in a spectrophotometer and the percentage of proliferation relative to DMSO-treated cells was calculated after correction from the blank well. IC50 were calculated using the GraphPad Prism software.

| melting point | IL-6 activity (IC50 < 30 μM) (hIL-6 mRNA) | FRET activity (IC50 < 30 μM) (Brd4 bromodomain 1) | c-myc activity (IC50 < 30 μM) (c-myc) | cell proliferation activity (IC50 < 30 μM) (Human AML MV-4-11 cells) | SMILES |
| --- | --- | --- | --- | --- | --- |
| 134 to 136 °C |  |  |  |  | COc1cc(OC)c2c(=O)[nH]c(-c3ccc(OCCO)c(-c4ccc(S(C)(=O)=O)cc4)n3)nc2c1 (as salt: methanesulfonate) [Example 25, 2-(5-(2-Hydroxyethoxy)-6-(4-(methylsulfonyl)phenyl)pyridin-2-yl)-5,7-dimethoxyquinazolin-4(3H)-one methanesulfonate] |
| 218 to 220 °C |  |  |  |  | COc1cc(OC)c2c(=O)[nH]c(-c3ccc(OCCO)c(-c4cccc(S(C)(=O)=O)c4)n3)nc2c1 (as salt: methanesulfonate) [Example 36, 2-(5-(2-Hydroxyethoxy)-6-(3-(methylsulfonyl)phenyl)pyridin-2-yl)-5,7-dimethoxyquinazolin-4(3H)-one methanesulfonate] |
| 179 to 180 °C | Active | Active | Active | Active | COc1cc(OC)c2c(=O)[nH]c(-c3ccc(OCCNC(C)C)c(-c4ccccc4)n3)nc2c1 [Example 22, 2-(5-(2-(Isopropylamino)ethoxy)-6-phenylpyridin-2-yl)-5,7-dimethoxyquinazolin-4(3H)-one] |
| 92 to 93 °C |  | Active |  |  | COc1cc(OC)c2c(=O)[nH]c(-c3ccc(OCCO)c(-c4ccccc4S(C)(=O)=O)n3)nc2c1 [Example 30, 2-(5-(2-Hydroxyethoxy)-6-(2-(methylsulfonyl)phenyl)pyridin-2-yl)-5,7-dimethoxyquinazolin-4(3H)-one] |
| 222 to 223 °C | Not Active | Active |  |  | COc1cc(OC)c2c(=O)[nH]c(-c3ccc(OCCNC(C)C)c(-c4cccc(S(C)(=O)=O)c4)n3)nc2c1 [Example 33, 2-(5-(2-(Isopropylamino)ethoxy)-6-(3-(methylsulfonyl)phenyl)pyridin-2-yl)-5,7-dimethoxyquinazolin-4(3H)-one] |

Further lines, the molecule ahead of its results:

| SMILES | melting point | IL-6 activity (IC50 < 30 μM) (hIL-6 mRNA) | FRET activity (IC50 < 30 μM) (Brd4 bromodomain 1) | c-myc activity (IC50 < 30 μM) (c-myc) | cell proliferation activity (IC50 < 30 μM) (Human AML MV-4-11 cells) |
| --- | --- | --- | --- | --- | --- |
| CCS(=O)(=O)c1ccc(-c2nc(-c3nc4cc(OC)cc(OC)c4c(=O)[nH]3)ccc2OCCN2CCOCC2)cc1 (as salt: hydrochloride) [Example 43, 2-(6-(4-(Ethylsulfonyl)phenyl)-5-(2-morpholinoethoxy)pyridin-2-yl)-5,7-dimethoxyquinazolin-4(3H)-one] | 245 °C (dec.) |  |  |  |  |
| COc1cc(OC)c2c(=O)[nH]c(-c3ccc(OCCO)c(-c4ccccc4)n3)nc2c1 [Example 21, 2-(5-(2-Hydroxyethoxy)-6-phenylpyridin-2-yl)-5,7-dimethoxyquinazolin-4(3H)-one] | 240 to 242 °C | Active | Active |  |  |
| COc1cc(OC)c2c(=O)[nH]c(-c3ccc(OCCN4CCOCC4)c(-c4ccc(S(C)(=O)=O)cc4)n3)nc2c1.Cl [Example 31, 5,7-Dimethoxy-2-(6-(4-(methylsulfonyl)phenyl)-5-(2-morpholinoethoxy)pyridin-2-yl)quinazolin-4(3H)-one hydrochloride] | 226 to 228 °C | Active | Active | Active | Not Active |
| COc1cc(OC)c2c(=O)[nH]c(-c3ccc(OCCNC(C)C)c(-c4ccccc4S(C)(=O)=O)n3)nc2c1 [Example 32, 2-(5-(2-(Isopropylamino)ethoxy)-6-(2-(methylsulfonyl)phenyl)pyridin-2-yl)-5,7-dimethoxyquinazolin-4(3H)-one] | 178 to 180 °C | Not Active | Active |  |  |
| CCS(=O)(=O)c1ccc(-c2nc(-c3nc4cc(OC)cc(OC)c4c(=O)[nH]3)ccc2OCCO)cc1 [Example 34, 2-(6-(4-(Ethylsulfonyl)phenyl)-5-(2-hydroxyethoxy)pyridin-2-yl)-5,7-dimethoxyquinazolin-4(3H)-one] | 282 to 284 °C | Active | Active | Active | Active |
| COc1cc(OC)c2c(=O)[nH]c(-c3cccc(-c4ccc([S+](C)[O-])cc4)c3)nc2c1 (stereo not drawn) [Example 47, 5,7-Dimethoxy-2-(4′-(methylsulfinyl)-[1,1′-biphenyl]-3-yl)quinazolin-4(3H)-one] | > 300 °C | Not Active | Not Active |  |  |
| C[S+]([O-])c1ccc(-c2nc(-c3nc4ccccc4c(=O)[nH]3)ccc2OCCO)cc1 (stereo not drawn) [Example 61, 2-(5-(2-Hydroxyethoxy)-6-(4-(methylsulfinyl)phenyl)pyridin-2-yl)quinazolin-4(3H)-one] | 261 to 262 °C |  | Active |  |  |
| COc1cccc2nc(-c3ccc(OCCO)c(-c4ccc(S(C)(=O)=O)cc4)n3)[nH]c(=O)c12 [Example 62, 2-(5-(2-Hydroxyethoxy)-6-(4-(methylsulfonyl)phenyl)pyridin-2-yl)-5-methoxyquinazolin-4(3H)-one] | > 300 °C | Active | Active |  |  |
| CC(C)NCCOc1ccc(-c2nc3ccccc3c(=O)[nH]2)nc1-c1ccc(S(C)(=O)=O)cc1 [Example 68, 2-(5-(2-(Isopropylamino)ethoxy)-6-(4-(methylsulfonyl)phenyl)pyridin-2-yl)quinazolin-4(3H)-one] | 188 to 189 °C |  | Active |  |  |
